The record followed here is US11708348B2, “Protease inhibitors for treatment of coronavirus infections” (The Scripps Research Institute, priority 2021, dated 2023).

Molecules are shown by their SMILES.

For the first assay, the system named is SARS-CoV-2 strain USA-WA1/2020. Put plainly: microbe, parasite or virus in culture. The class given is cell-based. As to conditions: Severe acute respiratory syndrome coronavirus 2, HeLa-ACE2, 24 h, HeLa-ACE2 cells, SARS-CoV-2 infection, 24 h; bound printed in cell; read-out: EC50, uM (Hela).
By EC50 is commonly meant the concentration needed to bring the measured effect to its halfway point. Turning to `Cn1cncc1C(O)C(=O)N1CC2(CC2)C[C@H]1C(=O)N[C@@H](C[C@@H]1CCNC1=O)C(=O)COC(F)(F)F` (stereo partly drawn) [Compound 383, (6S)-5-(2-hydroxy-2-(1-methyl-1H-imidazol-5-yl)acetyl)-N-((S)-3-oxo-1-((S)-2-oxopyrrolidin-3-yl)-4-(trifluoromethoxy)butan-2-yl)-5-azaspiro[2.4]heptane-6-carboxamide], the EC50 was greater than 1 µM.

Regarding `O=C1NCC[C@H]1C[C@H](NC(=O)[C@@H]1CC2(CC2)CN1C(=O)C(O)C1CCS(=O)(=O)CC1)C(=O)COC(F)(F)F` (stereo partly drawn) [Compound 388, (6S)-5-(2-(l,l-dioxidotetrahydro-2H-thiopyran-4-yl)-2-hydroxyacetyl)-N-((S)-3-oxo-1-((S)-2-oxopyrrolidin-3-yl)-4-(trifluoromethoxy)butan-2-yl)-5-azaspiro[2.4]heptane-6-carboxamide], the EC50 was greater than 1 µM.

Staying with this assay, now noted: Severe acute respiratory syndrome coronavirus 2, HeLa-ACE2, 24 h, HeLa-ACE2 cells, SARS-CoV-2 infection, 24 h; class symbols; read-out: EC50, uM (Hela).
Consider `CC[C@@H](C)[C@@H](O)C(=O)N1CC2(CC2)C[C@H]1C(=O)N[C@@H](C[C@@H]1CCNC1=O)C(=O)COC(F)(F)F` [Compound 380, (S)-5-((2R,3R)-2-hydroxy-3-methylpentanoyl)-N-((S)-3-oxo-1-((S)-2-oxopyrrolidin-3-yl)-4-(trifluoromethoxy)butan-2-yl)-5-azaspiro[2.4]-heptane-6-carboxamide], for which the EC50 lay in the range of 0.05 to 0.2 µM.

On to `CO[C@H](CC(C)C)C(=O)N1CC2(CC2)C[C@H]1C(=O)N[C@@H](C[C@@H]1CCNC1=O)C(=O)COC(F)(F)F` [Compound 381, (S)-5-((R)-2-methoxy-4-methylpentanoyl)-N-((S)-3-oxo-1-((S)-2-oxopyrrolidin-3-yl)-4-(trifluoromethoxy)butan-2-yl)-5-azaspiro[2.4]heptane-6-carboxamide], for which the concentration giving a half-maximal response (EC50) is less than 0.05 µM.

Regarding `COc1ccccc1[C@@H](O)C(=O)N1C[C@H]2[C@@H]([C@H]1C(=O)N[C@@H](C[C@@H]1CCNC1=O)C(=O)COC(F)(F)F)C2(C)C` [Compound 382, (1R,2S,5S)-3-((R)-2-hydroxy-2-(2-methoxyphenyl)acetyl)-6,6-dimethyl-N-((S)-3-oxo-1-((S)-2-oxopyrrolidin-3-yl)-4-(trifluoromethoxy)butan-2-yl)-3-azabicyclo-[3.1.0]hexane-2-carboxamide], the EC50 is less than 0.05 µM.

`CC(C)C[C@H](NC(=O)[C@H](O)C(F)(F)F)C(=O)N[C@@H](C[C@@H]1CCNC1=O)C(=O)COC(F)(F)F` [Compound 384, (S)-4-methyl-N-((S)-3-oxo-1-((S)-2-oxopyrrolidin-3-yl)-4-(trifluoromethoxy)butan-2-yl)-2-((S)-3,3,3-trifluoro-2-hydroxypropanamido)-pentanamide]: the EC50 was in the range of 0.05 to 0.2 µM.

With `O=C1NCC[C@H]1C[C@H](NC(=O)[C@@H]1CC2(CC2)CN1C(=O)[C@H](O)C(F)(F)F)C(=O)COC(F)(F)F` [Compound 385, (S)-N-((S)-3-oxo-1-((S)-2-oxopyrrolidin-3-yl)-4-(trifluoromethoxy)butan-2-yl)-5-((S)-3,3,3-trifluoro-2-hydroxypropanoyl)-5-azaspiro[2.4]heptane-6-carboxamide], the EC50 fell in the range of 0.05 to 0.2 µM.

In the case of `CC1(C)[C@@H]2[C@@H](C(=O)N[C@@H](C[C@@H]3CCNC3=O)C(=O)COC(F)(F)F)N(C(=O)[C@H](O)C(F)(F)F)C[C@@H]21` [Compound 386, (1R,2S,5S)-6,6-dimethyl-N-((S)-3-oxo-1-((S)-2-oxopyrrolidin-3-yl)-4-(trifluoromethoxy)butan-2-yl)-3-((S)-3,3,3-trifluoro-2-hydroxypropanoyl)-3-azabicyclo[3.1.0]-hexane-2-carboxamide], the EC50 lay within 0.05 to 0.2 µM.

Regarding `O=C1NCC[C@H]1C[C@H](NC(=O)[C@@H]1CC2(CC2)CN1C(=O)[C@@H](O)C(F)(F)F)C(=O)COC(F)(F)F` [Compound 387, (S)-N-((S)-3-oxo-1-((S)-2-oxopyrrolidin-3-yl)-4-(trifluoromethoxy)butan-2-yl)-5-((R)-3,3,3-trifluoro-2-hydroxypropanoyl)-5-azaspiro[2.4]-heptane-6-carboxamide], the EC50 was 0.05 to 0.2 µM.

For `O=C1NCC[C@H]1C[C@H](NC(=O)[C@@H]1CC2(CC2)CN1C(=O)C(O)CC(C(F)(F)F)C(F)(F)F)C(=O)COC(F)(F)F` (stereo partly drawn) [Compound 389, (6S)-N-((S)-3-oxo-1-((S)-2-oxopyrrolidin-3-yl)-4-(trifluoromethoxy)butan-2-yl)-5-(5,5,5-trifluoro-2-hydroxy-4-(trifluoromethyl)-pentanoyl)-5-azaspiro[2.4]heptane-6-carboxamide], the EC50 is less than 0.05 µM.

In the case of `O=C1NCC[C@H]1C[C@H](NC(=O)[C@@H]1CC2(CC2)CN1C(=O)C(O)CC(F)(F)F)C(=O)COC(F)(F)F` (stereo partly drawn) [Compound 390, (6S)-N-((S)-3-oxo-1-((S)-2-oxopyrrolidin-3-yl)-4-(trifluoromethoxy)butan-2-yl)-5-(4,4,4-trifluoro-2-hydroxybutanoyl)-5-azaspiro[2.4]heptane-6-carboxamide], the EC50 fell in the range of 0.05 to 0.2 µM.

Take `CC1(C)[C@@H]2[C@@H](C(=O)N[C@@H](C[C@@H]3CCNC3=O)C(=O)COC(F)(F)F)N(C(=O)C(O)CC(F)(F)F)C[C@@H]21` (stereo partly drawn) [Compound 391, (1R,2S,5S)-6,6-dimethyl-N-((S)-3-oxo-1-((S)-2-oxopyrrolidin-3-yl)-4-(trifluoromethoxy)butan-2-yl)-3-(4,4,4-trifluoro-2-hydroxybutanoyl)-3-azabicyclo[3.1.0]-hexane-2-carboxamide]: the EC50 lay in the range of 0.05 to 0.2 µM.

Regarding `O=C1NCC[C@H]1C[C@H](NC(=O)[C@@H]1CC2(CC2)CN1C(=O)[C@H](O)CC1CC1)C(=O)COC(F)(F)F` [Compound 392, (S)-5-((R)-3-cyclopropyl-2-hydroxypropanoyl)-N-((S)-3-oxo-1-((S)-2-oxopyrrolidin-3-yl)-4-(trifluoromethoxy)butan-2-yl)-5-azaspiro[2.4]heptane-6-carboxamide], the EC50 lay in the range of 0.05 to 0.2 µM.

For the molecule `O=C1NCC[C@H]1C[C@H](NC(=O)[C@@H]1[C@H]2CCC[C@H]2CN1C(=O)[C@H](O)CC1CC1)C(=O)COC(F)(F)F` [Compound 393, (1S,3aR,6aS)-2-((R)-3-cyclopropyl-2-hydroxypropanoyl)-N-((S)-3-oxo-1-((S)-2-oxopyrrolidin-3-yl)-4-(trifluoromethoxy)butan-2-yl)octahydrocyclo-penta[c]pyrrole-1-carboxamide], the EC50 was less than 0.05 µM.

Regarding `CC1(C)[C@@H]2[C@@H](C(=O)N[C@@H](C[C@@H]3CCNC3=O)C(=O)COC(F)(F)F)N(C(=O)[C@@H](O)CC3CC3)C[C@@H]21` [Compound 394, (1R,2S,5S)-3-((S)-3-cyclopropyl-2-hydroxypropanoyl)-6,6-dimethyl-N-((S)-3-oxo-1-((S)-2-oxopyrrolidin-3-yl)-4-(trifluoromethoxy)butan-2-yl)-3-azabicyclo[3.1.0] hexane-2-carboxamide], the EC50 was less than 0.05 µM.

With `O=C1NCC[C@H]1C[C@H](NC(=O)[C@@H]1CC2(CC2)CN1C(=O)C(O)CCC(F)(F)F)C(=O)COC(F)(F)F` (stereo partly drawn) [Compound 395, (6S)-N-((S)-3-oxo-1-((S)-2-oxopyrrolidin-3-yl)-4-(trifluoromethoxy)butan-2-yl)-5-(5,5,5-trifluoro-2-hydroxypentanoyl)-5-azaspiro[2.4]heptane-6-carboxamide], the EC50 fell in the range of 0.05 to 0.2 µM.
